In patent US11384115B2, “Nuclear sulfated oxysterol, potent regulator of lipid homeostasis, for therapy of hypercholesterolemia, hypertriglycerides, fatty liver diseases, and atherosclerosis” (Virginia Commonwealth University, priority 2004, dated 2022):

Experiments:
HMG CoA reductase mRNA = HMG CoA reductase mRNA by real-time RT-PCR in HepG2 cells; type: cell-based, human; conditions: for inhibition of HMG CoA reductase mRNA: HepG2, lipid-depleted serum media
Procedure: HepG2 cells were grown in MEM containing non-essential amino acids, 0.03M NaHCO3, 10% FBS, 1 mM L-glutamine, 1 mM sodium pyruvate and 1% Pen/Strep and incubated at 37° C. in 5% CO2. When cells reached at ˜90% confluency, the oxysterols in DMSO or in ethanol (final concentration, 0.1%) and/or [1-^14C]acetate for cholesterol synthesis was added or otherwise as indicated. Microsomal and cytosol fractions were isolated from broken cells as described previously (10).
Total RNA was isolated from HepG2 cells using SV Total RNA Isolation Kit (Promega). Two μg of total RNA was used for first-strand cDNA synthesis as recommended by manufacture (Invitrogen). Real-time PCR was performed using SYBR Green on ABI 7500 Fast Real-Time PCR System (Applied Biosystems). The final reaction mixture contained 5 ng of cDNA, 100 nM of each primer, 10 μl of 2×SYBR® Green PCR Master Mix (Applied Biosystems), and RNase-free water to complete the reaction mixture volume to 20 μl. All reactions were performed in triplicate. The PCR was carried out for 40 cycles at 95° C. for 15 s and 60° C. for 1 min. The fluorescence was read during the reaction, allowing a continuous monitoring of the amount of PCR product. The data was normalized to internal control-β-actin or GAPDH mRNA. The sequences of primers for HMG CoA reductase used in real-time PCR are […] (SEQ ID NO: 1) (Forward) and […] (SEQ ID NO: 2) (Reverse).

PPARγ = target: T1, PPARγ (Homo sapiens, UniProt P37231); assay: Western blot of nuclear PPARγ levels in THP-1 macrophages; type: cell-based; conditions: for nuclear PPARγ protein levels: THP-1 macrophages, 4 hrs
T1 construct: THP-1 monocytes were differentiated to macrophages by adding 100 nM of phorbol 12-myristate 13-acetate (PMA); endogenous in cells; host or cells: THP-1 monocyte-derived macrophages (human, ATCC)
T1 sequence (P37231 1-505): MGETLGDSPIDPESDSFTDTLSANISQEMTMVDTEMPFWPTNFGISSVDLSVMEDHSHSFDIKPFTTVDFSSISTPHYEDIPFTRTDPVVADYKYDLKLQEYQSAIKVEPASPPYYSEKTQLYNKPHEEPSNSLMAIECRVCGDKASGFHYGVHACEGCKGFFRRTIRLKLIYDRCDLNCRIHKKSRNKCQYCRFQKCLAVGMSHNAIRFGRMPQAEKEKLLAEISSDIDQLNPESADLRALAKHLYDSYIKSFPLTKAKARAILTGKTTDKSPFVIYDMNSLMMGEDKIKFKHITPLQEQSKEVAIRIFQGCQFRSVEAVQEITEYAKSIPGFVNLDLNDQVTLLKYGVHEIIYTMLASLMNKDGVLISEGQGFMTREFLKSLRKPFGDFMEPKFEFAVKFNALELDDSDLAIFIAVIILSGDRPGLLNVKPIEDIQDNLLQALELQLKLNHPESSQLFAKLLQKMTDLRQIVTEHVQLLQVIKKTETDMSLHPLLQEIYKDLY
Procedure: FIGS. 21A and 21B. Effects of 25HC3S and 25HC on PPARγ protein levels in THP-1 macrophages. A, THP-1 macrophages were treated with 25HC3S (top panel) or 25HC (middle panel) at different concentration as indicated for 4 hrs. The nuclear PPARγ levels were analyzed by Western blot. […] Expression levels were normalized to Lamin as shown in the bottom panels. The data represent one typical result out of three experiments.
Human THP-1 monocytes and H441 cells were purchased from the American Type Culture Collection (Manassas, Va.) and maintained according to the supplier's protocols. THP-1 monocytes were differentiated to macrophages by adding 100 nM of phorbol 12-myristate 13-acetate (PMA). When cells reached 90% confluence, oxysterols in DMSO or in ethanol (the final concentration in media was <0.1%) were added as indicated. The cells were harvested at the times as indicated. Nuclear and cytosolic fractions were isolated using NE-PER®, Nuclear and Cytoplasmic Extraction Reagents (Pierce, Rockford, Ill. Western blot analysis of nuclear PPAR and intracellular I B levels
Fifty μg of total cell lysates or nuclear protein extracts, otherwise as indicated, were separated on 10% SDS-PAGE gels and transferred onto a polyvinylidene difluoride membrane as described previously. Membranes were blocked in TBS containing 5% of nonfat dried milk for 1 hr. The specific proteins were determined by incubation with specific antibodies against human PPAR or IκB overnight at 4° C. with shaking. After washing, the membrane was incubated in a 1:3,000 dilution of a secondary antibody (goat anti-rabbit or anti-mouse IgG-HP conjugate; Bio-Rad, Hercules, Calif.) at room temperature for 1 hr in the washing buffer (Tris buffered solution containing 0.5% Tween 20). The protein bands were visualized using Western Lightening Chemiluminescence Reagent (Perkin-Elmer, Waltham, Mass.). The expression levels were normalized to Lamin.

PPARγ mRNA = PPARγ mRNA by real time RT-PCR in macrophages; type: cell-based, human
Procedure: Total RNA was isolated from THP-1 derived macrophages following treatments for 6 hrs otherwise as indicated using SV Total RNA Isolation Kit (Promega, Wisconsin, Wis.), which includes DNase treatment. Two microgram of total RNA was used for first-strand cDNA synthesis as recommended by manufacturer (Invitrogen, Carlsbad, Calif.). Real-time RT-PCR was performed using SYBR Green as indicator on ABI 7500 Fast Real-Time PCR System (Applied Biosystems, Foster City, Calif.). The final reaction mixture contained 10 ng of cDNA, 100 nM of each primer, 10 μl of 2×SYBR® Green PCR Master Mix (Applied Biosystems, Foster City, Calif.), and RNase-free water to complete the reaction mixture volume to 20 μl. All reactions were performed in triplicate. PCR was carried out for 40 cycles of 95° C. for 15 s and 60° C. for 1 min. The fluorescence was read during the reaction, allowing a continuous monitoring of the amount of PCR product. The data was normalized to internal control GAPDH.

[1] = HepG2, in the presence of serum

C[C@H](CCCC(C)(C)O)[C@H]1CC[C@H]2[C@@H]3CC=C4C[C@@H](OS(=O)(=O)O)CC[C@]4(C)[C@H]3CC[C@]12C [25HC3S, 5-cholesten-3β, 25-diol 3-sulphate]
HMG CoA reductase mRNA (HMG CoA reductase mRNA; HepG2, 10% FBS media): concentration dependent decreases
inhibition of the mRNA of HMG CoA reductase and SREBP1 (HMG CoA reductase mRNA; HepG2, at 12 μM): 85%
inhibition of HMG CoA reductase (HMG CoA reductase mRNA; [1]): 70%
inhibition of HMG CoA reductase mRNA (HMG CoA reductase mRNA): still strongly inhibits
nuclear PPARγ protein levels (PPARγ): substantially increased
nuclear PPARγ levels in the presence of the antagonist T0070907 (PPARγ; preincubated with 1 μM of T0070907 for 2 hrs): failed to increase the nuclear PPARγ levels to its maxima
PPARγ mRNA levels (PPARγ mRNA): neither 25HC nor 25HC3S was able to change

C[C@H](CCCC(C)(C)O)[C@H]1CC[C@H]2[C@@H]3CC=C4C[C@@H](O)CC[C@]4(C)[C@H]3CC[C@]12C [25HC, 25-hydroxycholesterol, reference compound]
inhibition of the mRNA of HMG CoA reductase and SREBP1 (HMG CoA reductase mRNA; HepG2, at 3 μM): 85%
inhibition of HMG CoA reductase (HMG CoA reductase mRNA; [1]): 70%
inhibition of HMG CoA reductase mRNA (HMG CoA reductase mRNA): more potent inhibition than 25HC3S
inhibition of HMG CoA reductase (HMG CoA reductase mRNA; HepG2, lipids depleted serum): 90%
nuclear PPARγ protein levels (PPARγ): decreased
rosiglitazone-increased nuclear PPARγ levels (PPARγ; preincubated with 1 μM of rosiglitazone for 2 hrs, 25HC for 4 hrs): significantly inhibited
PPARγ mRNA levels (PPARγ mRNA): neither 25HC nor 25HC3S was able to change
